Data taken from patent US5002886A, “Oxidoreductase and the preparation thereof” (British Gas PLC, priority 1986, dated 1991).

Test system: oxidoreductase
Assay: Michaelis constants (Dixon and Webb method, Lineweaver-Burke plots)
Format: biochemical, Microbacterium SP. (NCIB 12048)
Conditions: two substrate enzyme; calculated from primary Lineweaver-Burke plots
Description: The Michaelis constants (K^m) for NAD^+ and 1,2-ethanediol were calculated using the method described by Dixon, M and Webb, E.C. ("Enzymes", Longman Group Limited, 1964 pp. 84-86) for two substrate enzymes, based on data from primary plots constructed by the Lineweaver-Burke technique.

In the case of `OCCO` [Monoethylene Glycol, 1,2-ethanediol], the Km is reported as about 480 µM.

`NC(=O)c1ccc[n+]([C@@H]2O[C@H](COP(=O)([O-])OP(=O)(O)OC[C@H]3O[C@@H](n4cnc5c(N)ncnc54)[C@H](O)[C@@H]3O)[C@@H](O)[C@H]2O)c1` [NAD^+, nicotinamide adenenine dinucleotide] showed a Km of about 330 µM.
